Data from patent publication US8445538B2, “Glucagon receptor antagonist compounds” (Merck Sharp & Dohme Corp., priority 2008, dated 2013).
pIC50: −log10 of the molar value.

Target: T1, human glucagon receptor (Homo sapiens, UniProt P47871)
T1 construct: expressed in transfected cells; cell membranes used
Test: Glucagon Receptor Binding Assay (125I-glucagon, SPA, CHO cell membranes)
Settings: 125I-Glucagon binding to membranes of CHO cells expressing cloned human glucagon receptor; more active isomer of indicated compounds
Experimental: Glucagon Receptor Binding Assay
A stable CHO (Chinese hamster ovary) cell line expressing cloned human glucagon receptor was maintained as described (Chicchi, et. al. J Biol Chem 272, 7765-9 (1997); Cascieri, et. al. J Biol Chem 274, 8694-7 (1999)). To determine antagonistic binding affinity of compounds, 0.001-0.003 mg of cell membranes from these cells were pre-incubated with 0.100 mg WGA-coated PVT SPA beads (Amersham) for 20 minutes at room temperature in 25 μL of a buffer containing 50 mM Tris-HCl (pH 7.5), 5 mM MgCl2, 2 mM EDTA, 0.1% BSA and 3% glycerol in Costar 384 well plates with clear bottoms (#3706). Next, 25 μL of ^125I-Glucagon (New England Nuclear, Mass.) (1×10^−14 mol per well) and either 1 μL solutions of test compounds or 0.001 mM unlabeled glucagon or DMSO were added and mixed. After 4-12 hours incubation at room temperature, the radioactivity bound to the cell membranes was determined in a radioactive emission detection counter (Wallac-Microbeta). Data were analyzed using the Data Analyzer software program of Merck & Co., Inc. The IC50 values were calculated using non-linear regression analysis assuming single-site competition.

T1 sequence (P47871 26-477): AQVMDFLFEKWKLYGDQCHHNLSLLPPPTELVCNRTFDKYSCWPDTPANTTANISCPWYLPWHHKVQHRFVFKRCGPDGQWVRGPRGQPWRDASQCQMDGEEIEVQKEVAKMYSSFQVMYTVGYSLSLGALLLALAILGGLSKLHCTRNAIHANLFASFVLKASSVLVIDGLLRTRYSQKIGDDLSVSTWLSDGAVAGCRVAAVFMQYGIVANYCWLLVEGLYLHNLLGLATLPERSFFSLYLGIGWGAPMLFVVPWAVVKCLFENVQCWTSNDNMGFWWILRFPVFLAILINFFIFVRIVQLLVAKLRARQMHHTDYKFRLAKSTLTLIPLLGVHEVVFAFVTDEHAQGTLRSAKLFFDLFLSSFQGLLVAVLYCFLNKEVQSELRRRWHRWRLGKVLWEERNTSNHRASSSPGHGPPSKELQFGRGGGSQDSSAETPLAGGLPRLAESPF

Structure (SMILES)	pIC50
CCC[C@H](c1ccc(C(=O)NCC(F)(F)C(=O)O)cc1)C(c1ccc(Cl)cc1)c1ccc(F)c2ccccc12 (stereo partly drawn) [Example 52]	7.01
CCC[C@H](c1ccc(C(=O)NCc2nnn[nH]2)cc1)C(c1ccc(Cl)cc1)c1ccc(F)c2ccccc12 (stereo partly drawn) [Example 55]	8.40
CCC[C@H](c1ccc(C(=O)NCCC(=O)O)cc1)C(c1ccc(Cl)cc1)c1ccc2cc(OC(F)F)ccc2c1 (stereo partly drawn) [Example 3, N-[4-((1S)-1-{(4-chlorophenyl)[6-(difluoromethoxy)-2-naphthyl]methyl}butyl)benzoyl]-β-alanine]	9.43
CCCC(c1ccc(C(=O)NCCC(=O)O)cc1)C(c1ccc(Cl)cc1)c1ccc2cc(SC)ccc2c1 (stereo not drawn) [Example 36]	9.08
CCC[C@H](c1ccc(C(=O)NCCC(=O)O)cc1)C(c1ccc(C#N)cc1)c1ccc(F)c2ccccc12 (stereo partly drawn) [Example 5, N-(4-{(1S)-1-[(4-cyanophenyl)(4-fluoro-1-naphthyl)methyl]butyl}benzoyl)-β-alanine]	8.68
CCC[C@H](c1ccc(C(=O)NCCC(=O)O)cc1)C(c1ccc(Cl)cc1)c1ccc2cc(C#N)ccc2c1 (stereo partly drawn) [Example 4]	8.82
CCC[C@H](c1ccc(C(=O)NC[C@H](O)C(=O)O)cc1)C(c1ccc(Cl)cc1)c1ccc2cc(OC)ccc2c1 (stereo partly drawn) [Example 7, (2S)-3-[(4-{(1S)-1-[(4-chlorophenyl)(6-methoxy-2-naphthyl)methyl]butyl}benzoyl)amino]-2-hydroxypropanoic acid]	8.77
CCC[C@H](c1ccc(C(=O)Nc2nnn[nH]2)cc1)C(c1ccc(Cl)cc1)c1ccc(F)c2ccccc12 (stereo partly drawn) [Example 56]	8.12
CCC[C@H](c1ccc(C(=O)NCCS(=O)(=O)O)cc1)C(c1ccc(Cl)cc1)c1ccc(F)c2ccccc12 (stereo partly drawn) [Example 53]	8.47
CCCC(c1ccc(C(=O)NCCC(=O)O)cc1)C(c1ccc(C)cc1)c1ccc(F)c2ccccc12 (stereo not drawn) [Example 12]	8.37

Continued, values first:

pIC50	Structure (SMILES)
8.48	CCC[C@H](c1ccc(C(=O)NCCC(=O)O)cc1)C(c1ccc(Cl)cc1)c1ccc(F)c2ccccc12 (stereo partly drawn) [Example 1, N-(4-{(1S)-1-[(4-chlorophenyl)(4-fluoro-1-naphthyl)methyl]butyl}benzoyl)-β-alanine]
7.28	CCCC(c1ccc(C(=O)NCCC(=O)O)cc1)C(c1ccc(Cl)cc1)c1c(Cl)cc(OC)c2c(F)cccc12 (stereo not drawn) [Example 30]
7.85	CCCC(c1ccc(C(=O)NCCC(=O)O)cc1)C(c1ccc(Cl)cc1)c1ccc(OC)c2ccc(OC)cc12 (stereo not drawn) [Example 21]
8.54	CCCC(c1ccc(C(=O)NCCC(=O)O)cc1)C(c1ccc(Cl)cc1)c1ccc2cc(S(C)(=O)=O)ccc2c1 (stereo not drawn) [Example 37]
9.07	CCC[C@H](c1ccc(C(=O)NCCC(=O)O)cc1)C(c1ccc(Cl)cc1)c1ccc2cc(OC)ccc2c1 (stereo partly drawn) [Example 2, N-(4-{(1S)-1-[(4-chlorophenyl)(6-methoxy-2-naphthyl)methyl]butyl}benzoyl)-β-alanine]
